According to patent US7052705B2, “Anti-angiogenic peptides” (Regeneron Pharmaceuticals, Inc., priority 2001, dated 2006):
Ends that are not written are not given here. Peptide text beside a SMILES is read from it.

Key:
VEGFR-2/NP-1 = test system: T1, VEGFR-2/NP-1; type: binding, human
T1 construct: In the COS-1 cells overexpressing the full-length VEGFR-2; the NP-1 cDNA used for these experiments would only produce the full-length receptor; expressed in transfected cells; host or cells: COS-1
Description: (§1) When co-expressing VEGFR-2 and NP-1, 5 μg of VEGFR-2 cDNA and 2 μg of NP-1 cDNA are used. When the receptors are expressed in isolation, for VEGFR-2, 5 μg of VEGFR-2 cDNA and 2 μg of mock vector cDNA are used.
(§2) After generation of the liposome/DNA solution, the cells are rinsed one time with 5 ml Optimem I, then replaced with another 5 ml of Optimem I containing the liposome/DNA solution. The cells are incubated for two to four hours at 37° C., 5% CO2, then 5 ml of COS-1 cell growth medium is applied and the transfection is allowed to proceed overnight. The following day, cells are trypsinized (0.2% trypsin, 1 mM EDTA, Gibco-BRL), and cells containing common transfectants are pooled. […] The cells are then used for corresponding VEGFR-2/NP-1 complex formation and peptide blocking studies.
(§3) Cells are plated the day before experimentation at 200,000 cells per well in twelve well tissue culture plates (VWR) in 1 ml of growth medium specific for each cell type. On the day of experimentation, the cells were pre-equilibrated at 4° C. for 30 to 60 minutes in binding buffer (0.2% BSA, Sigma; 25 mM Hepes, Gibco; MEM, Gibco). […] The binding reaction is allowed to reach equilibrium for four hours at 4° C. with gentle agitation.
(§4) Unbound ligand is then removed by quickly washing three times with 5 ml ice cold BSA-free binding buffer (MEM, Gibco, 25 mM Hepes, Gibco). Cells are lysed by the addition of 250 μl of RIPS Buffer (previously described), and the lysed cells are transferred to 12×75 mm test tubes and counted using a gamma counter. Generation of competition curves and IC50 values are performed using the Prism software package (Graphpad Software Inc., San Diego, Calif.).

NP-1 = NP-1 (Homo sapiens, UniProt O14786); type: binding; design: the NP-1 cDNA used for these experiments would only produce the full-length receptor; expressed in transfected cells; host or cells: COS-1
Description: as §1, §2, §3, §4

[1] = test system: VEGF165 vascular growth response; test: Mouse corneal pocket model; type: in vivo; design: key to Score #1 (subjective neovascular response score) / Score #2 (subjective neovascular response score) / Score #3 (subjective neovascular response score): subjective neovascular growth score, 0 to 6 scale
Description: A 0.2 μl aliquot of this solution yielded a 4 μg dose. Human recombinant VEGF165 was purchased from R&D Systems (Minneapolis, Minn.), supplied in a lyophilized, carrier free form and reconstituted in the same water as the above peptide. A 0.2 μl aliquot of this solution yielded a 300 ng dose.
Male albino mice (Crl: CD-I (ICR) BR, VAF) from Charles River (Portage, N.C.), 20–24 grams were used. […] Compound adsorbed pellets were fabricated and implanted as described below. The treated eye was imaged on the day of implantation (day 0) and on days 4 and 7 following surgery. The growth response was subjectively graded on a scale from 0 to 6 by three independent graders blinded from the treatment grouping labels using the 3× printed image.
Polyvinyl alcohol (PVA) matrix material (Rippey, El Dorado Hills, Calif.) was cut into 1 cm×3 cm pieces and placed in a vibratome for sectioning on edge to produce 300 μm thick strips. The strips were individually sterilized by exposure to ethylene oxide. A strip was then cut under a dissecting microscope into approximately 300 μm cubes. The desired concentration of test compound or vehicle was adsorbed, sometimes utilizing a micro dessicant chamber. An HP auto sampler micro-syringe (Hamilton, P/N 7000.5) controlled the exact volume of the agent adsorbed onto the sponge. The sponge was then placed on a microscope slide prepared with a coating (20 μl spread over a 0.75 mm×1.5 mm area) of 12% hydron (Sigma, St. Louis, Mo.). The slide was protected in a clean petri dish and placed into a dessicator at 4° C. for a few hours or overnight. The dry, adsorbed sponges were mechanically flattened and overlaid with another aliquot of 12% hydron and again placed into a dessicator to cure the hydron coating. Fabrication of the adsorbed PVA sponge-hydron sandwich (referred to as a pellet) was done no more than 48 hours prior to implantation and the pellets were stored at 4° C. On the day of surgery and just prior to implantation, the pellet was trimmed so that the sponge remained encased by hydron (approximately 400 μm×400 μm×50 μm) and could be carefully removed from the slide.
Mice were anesthetized with 0.05 cc of Ketamine (140 mg/kg) and 0.03 cc Xylazine (17 mg/kg). A surgical plane of anesthesia was maintained by subsequent administration of half doses of the above compounds as needed. The whiskers on the animal's right side were trimmed down to ¼ of an inch. The right eye was bathed in an ophthalmic local anesthetic solution (Ophthaine, 0.5% tetracine hydrochloride) initially and throughout the procedure. The animal was placed on its side and the skin around the eye was gently retracted to expose the lateral and apical aspects of the cornea. The lateral limbic artery bifurcation was positioned horizontally. While stabilizing the eye against the ocular orbit, a vertical incision was made using a micro scalpel into the corneal tissue just lateral to the pupil. Care was taken to prevent accidental perforation of the anterior eye chamber. The incision depth was carefully deepened until a delicate and small lateral stab could be made (on axis with the lateral limbic artery bifurcation) with the micro scalpel into the middle of the corneal stroma. This lateral, intrastromal incision was enlarged by blunt dissection with very fine forceps until a pocket was formed from the vertical incision toward the limbus.
A hydron coated PVA sponge with adsorbed test compound (pellet) was prepared for implantation by carefully excising and removing it from the microscope slide. The pellet was introduced gently into the corneal pocket and advanced to within 1–2 mm of the limbus. The edges of the vertical corneal incision were approximated to encourage rapid healing. The imaging procedure (described below) was used to document the native limbic vascular architecture at the time of implantation. Post surgical recovery of the animal consisted of triple antibiotic ophthalmic ointment to prevent corneal drying, abrasion and infection. […]

Chain of NP-1 (O14786 22-923): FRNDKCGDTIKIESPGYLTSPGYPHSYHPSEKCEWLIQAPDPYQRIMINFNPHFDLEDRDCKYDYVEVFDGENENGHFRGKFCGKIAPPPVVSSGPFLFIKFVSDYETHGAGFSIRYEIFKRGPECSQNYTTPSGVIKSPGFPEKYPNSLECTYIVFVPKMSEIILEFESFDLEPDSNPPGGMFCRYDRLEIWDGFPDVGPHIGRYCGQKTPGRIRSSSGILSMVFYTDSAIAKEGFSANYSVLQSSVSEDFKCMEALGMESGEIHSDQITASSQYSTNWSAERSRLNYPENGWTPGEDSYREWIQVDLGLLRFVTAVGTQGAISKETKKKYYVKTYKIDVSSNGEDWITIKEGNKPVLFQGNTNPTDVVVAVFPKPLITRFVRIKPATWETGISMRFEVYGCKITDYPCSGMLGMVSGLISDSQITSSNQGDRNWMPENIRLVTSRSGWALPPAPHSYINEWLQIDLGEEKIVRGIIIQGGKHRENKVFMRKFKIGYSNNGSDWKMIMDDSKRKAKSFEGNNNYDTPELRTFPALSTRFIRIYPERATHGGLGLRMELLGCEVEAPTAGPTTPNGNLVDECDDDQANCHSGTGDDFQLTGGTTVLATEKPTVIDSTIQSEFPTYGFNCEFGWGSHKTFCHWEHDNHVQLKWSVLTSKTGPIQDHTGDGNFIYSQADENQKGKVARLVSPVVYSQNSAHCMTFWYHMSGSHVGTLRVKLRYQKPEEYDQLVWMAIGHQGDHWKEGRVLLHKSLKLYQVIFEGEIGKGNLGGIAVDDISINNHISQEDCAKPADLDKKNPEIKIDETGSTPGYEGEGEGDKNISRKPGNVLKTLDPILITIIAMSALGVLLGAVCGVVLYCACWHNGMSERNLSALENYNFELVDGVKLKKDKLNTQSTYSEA

| Molecule | Relative Affinity to Lead Peptide (RALP), VEGFR-2/NP-1 (VEGFR-2/NP-1) | Relative Affinity to Lead Peptide (RALP), NP-1 (NP-1) | further results |
| --- | --- | --- | --- |
| C[C@@H]1NC(=O)CNC(=O)[C@H](CCCNC(=N)N)NC(=O)CNC(=O)[C@H](C)NC(=O)[C@@H](N)CSSC[C@@H](C(=O)N[C@@H](CCCNC(=N)N)C(=O)N[C@@H](CCC(=O)O)C(=O)N[C@@H](CCCCN)C(=O)N[C@@H](CCC(N)=O)C(=O)N[C@@H](CCCNC(=N)N)C(=O)N2CCC[C@H]2C(=O)N[C@@H](CO)C(=O)N[C@@H](CC(=O)O)C(=O)N[C@@H](CCCCN)C(=O)N2CCC[C@H]2C(=O)N[C@@H](CCCNC(=N)N)C(=O)N[C@@H](CCCNC(=N)N)C(=O)O)NC(=O)[C@H](CCCNC(=N)N)NC1=O [P6V8-3NCS1-7CCA1A5] (HELM PEPTIDE1{C.A.G.R.G.A.R.C.R.E.K.Q.R.P.S.D.K.P.R.R}$PEPTIDE1,PEPTIDE1,1:R3-8:R3$$$V2.0) |  |  | Relative Affinity to Lead (RALP), VEGFR-2/NP-1 (VEGFR-2/NP-1): 17.33; Relative Affinity to Lead (RALP), NP-1 (NP-1): 30.76 |
| C[C@@H]1NC(=O)[C@@H](N)CSSC[C@@H](C(=O)N[C@@H](CCCNC(=N)N)C(=O)N[C@@H](CCC(=O)O)C(=O)N[C@@H](CCCCN)C(=O)N[C@@H](CCC(N)=O)C(=O)N[C@@H](CCCNC(=N)N)C(=O)N2CCC[C@H]2C(=O)N[C@@H](CO)C(=O)N[C@@H](CC(=O)O)C(=O)N[C@@H](CCCCN)C(=O)N2CCC[C@H]2C(=O)N[C@@H](CCCNC(=N)N)C(=O)N[C@@H](CCCNC(=N)N)C(=O)O)NC(=O)[C@H](CCCNC(=N)N)NC(=O)[C@H](CCCCN)NC(=O)CNC(=O)[C@H](CCCNC(=N)N)NC(=O)CNC1=O [P6V8-3NCS1-7CCA1] (HELM PEPTIDE1{C.A.G.R.G.K.R.C.R.E.K.Q.R.P.S.D.K.P.R.R}$PEPTIDE1,PEPTIDE1,1:R3-8:R3$$$V2.0) |  |  | Relative Affinity to Lead (RALP), VEGFR-2/NP-1 (VEGFR-2/NP-1): 1.97; Relative Affinity to Lead (RALP), NP-1 (NP-1): 14.35 |
| C[C@@H]1NC(=O)CNC(=O)[C@H](CCCNC(=N)N)NC(=O)CNC(=O)[C@H](CCCCN)NC(=O)[C@@H](N)CSSC[C@@H](C(=O)N[C@@H](CCCNC(=N)N)C(=O)N[C@@H](CCC(=O)O)C(=O)N[C@@H](CCCCN)C(=O)N[C@@H](CCC(N)=O)C(=O)N[C@@H](CCCNC(=N)N)C(=O)N2CCC[C@H]2C(=O)N[C@@H](CO)C(=O)N[C@@H](CC(=O)O)C(=O)N[C@@H](CCCCN)C(=O)N2CCC[C@H]2C(=O)N[C@@H](CCCNC(=N)N)C(=O)N[C@@H](CCCNC(=N)N)C(=O)O)NC(=O)[C@H](CCCNC(=N)N)NC1=O [P6V8-3NCS1-7CCA5] (HELM PEPTIDE1{C.K.G.R.G.A.R.C.R.E.K.Q.R.P.S.D.K.P.R.R}$PEPTIDE1,PEPTIDE1,1:R3-8:R3$$$V2.0) |  |  | Relative Affinity to Lead (RALP), VEGFR-2/NP-1 (VEGFR-2/NP-1): 1.87; Relative Affinity to Lead (RALP), NP-1 (NP-1): 1.64 |
| H-AGRGARAAEAQRPSDKPRR-OH [P6V8-3NCSA1,5,7,8, 10] | 5.22 | 67.76 |  |
| H-AGRGARRREKQRPSDKPRR-OH [P6V8-3NCSA1A5] | 0.71 |  |  |
| H-AGRGKARREKQRPSDKPRR-OH [P6V8-3NCSA1A6] | 0.93 | 2.30 |  |
| H-AGRGKRRREKQRPSDKPRR-OH [Peptide P6V8-3NCSA1] |  | 0.99 |  |
| H-KGAGKARREKQRPSDKPRR-OH [P6V8-3NCSA3A6] | 8.20 | 48.8 |  |
| H-KGAGKRRREKQRPSDKPRR-OH [Peptide P6V8-3NCSA3] | 0.23 | 8.8 |  |
| H-KGRGARRREKQRPSDKPRR-OH [Peptide P6V8-3NCSA5] | 1.45 |  |  |
| H-KGRGKARREKQRPSDKPRR-OH [Peptide P6V8-3NCSA6] | 5.10 | 2.16 |  |
| H-KGRGKRAAEAQAPSDAPAR-OH [P6V8-3NCSA7,8, 10, 12, 16, 18] | 27.540 | 72.44 |  |
| H-KGRGKRAAEAQRPSDKPRR-OH [P6V8-3NCSA7,8, 10] | 3.27 | 14.25 |  |
| H-KGRGKRAAEKQAPSDKPRR-OH [P6V8-3NCSA7,8, 12] |  | 1.91 |  |
| H-RRPAAAGKRRREKQRPSDKPRR-OH [AS-1, RRP AAA GKR RRE KQR PSD KPR R] | 1 | 8 |  |
| H-RRPKGRGKRRREKQRPSDAAAR-OH [AS-5] | 0.71 | 1.6 |  |
| RRPKGRGKRRREKQRPCDKPRR [Peptide P6V8, RRP KGR GKR RRE KQR P CDKPRR] |  |  | score of eye images by all graders ([1]; Day 7, P6V8 alone 4 μg, 0 = no change in limbic vasculature from Day 0): 0; vascular growth response to 300 ng of VEGF165 in the presence of peptide ([1]; P6V8 4 μg, mouse corneal micro pocket): attenuated; Score #1 (subjective neovascular response score) ([1]; grader 1, per animal, scale 0 to 6, pellet P6V8 4 μg and/or VEGF165 300 ng): 0; Score #2 (subjective neovascular response score) ([1]; grader 2, per animal, scale 0 to 6, pellet P6V8 4 μg and/or VEGF165 300 ng): 0; Score #3 (subjective neovascular response score) ([1]; grader 3, per animal, scale 0 to 6, pellet P6V8 4 μg and/or VEGF165 300 ng): 0 |
